# From patent publication US9278943B2, “Methods of using as analgesics 1-benzyl-1-hydroxy-2, 3-diamino-propyl amines, 3-benzyl-3-hydroxy-2-amino-propionic acid amides and related compounds” (Exonhit Therapeutics SA, priority 2005, dated 2016)
# Structures can show the parent of a compound that is named as a salt. Where two headings read alike, the source gives them in different places.
# How the values were obtained:
# [1] = tested on: tactile allodynia in the rat Chung model (L5/L6 spinal nerve ligation); test: Chung model: reversal of tactile allodynia (von Frey hairs) after spinal nerve ligation; format: in vivo; conditions: read-out: Peak % Pain reversal: time post dose; for inhibition in vivo at 0.3 mg/kg: 300 μg/kg IP; for inhibition in vivo at 1 mg/kg: 1000 μg/kg IP
# From the text: An art-accepted model or assay for measuring an analgesic effect of a compound in chronic pain (in particular peripheral neuropathy) is the model known as Kim and Chung 1992, Pain […], pp 355-363 (Chung model). This model involves the surgical ligation of the L5 (and optionally the L6) spinal nerves on one side in experimental animals. Rats recovering from the surgery gain weight and display a level of general activity similar to that of normal rats. However, these rats develop abnormalities of the foot, wherein the hindpaw is moderately everted and the toes are held together. More importantly, the hindpaw on the side affected by the surgery appears to become sensitive to low-threshold mechanical stimuli and will perceive pain instead of the faint sensation of touch. This sensitivity to normally non-painful touch, called “tactile allodynia”, develops within the first week after surgery and lasts for at least two months. The allodynia response includes lifting the affected hindpaw to escape from the stimulus, licking the paw and holding it in the air for many seconds. None of these responses is normally seen in the control group.
# To produce the tactile allodynia, rats are anesthetized before surgery. The surgical site is shaved and prepared either with betadine or Novacaine. Incision is made from the thoracic vertebra Xlll down toward the sacrum. Muscle tissue is separated from the spinal vertebra (left side) at the L4-S2 levels. The L6 vertebra is located and the transverse process is carefully removed with a small rongeur to expose the L4-L6 spinal nerves. The L5 and L6 spinal nerves are isolated and tightly ligated with 6-0 silk thread. The same procedure is done on the right side as a control, except no ligation of the spinal nerves is performed.
# After a complete hemostasis is confirmed, the wounds are sutured. A small amount of antibiotic ointment is applied to the incised area, and the rat is transferred to the recovery plastic cage under a regulated heat-temperature lamp.
# On the day of the experiment, at least seven days after the surgery, typically six rats per test group are administered the test drugs by intraperitoneal (i.p.) injection or oral gavage (p.o.). For i.p. administration, the compounds are formulated in H2O and given in a volume of 1 ml/kg body weight by injecting into the intraperitoneal cavity. For p.o. administration, the compounds are formulated in H2O and given in a volume of 1 ml/kg body weight using an 18-gauge, 3 inch gavage needle that is slowly inserted through the esophagus into the stomach.
# Tactile allodynia is assessed via von Frey hairs, which are a series of fine hairs with incremental differences in stiffness. Rats are placed in a plastic cage with a wire mesh bottom and allowed to acclimate for approximately 30 minutes. To establish the pre-drug baseline, the von Frey hairs are applied perpendicularly through the mesh to the mid-plantar region of the rats' hindpaw with sufficient force to cause slight buckling and held for 6-8 seconds. The applied force has been calculated to range from 0.41 to 15.1 grams. If the paw is sharply withdrawn, it is considered a positive response. A normal animal will not respond to stimuli in this range, but a surgically ligated paw will be withdrawn in response to a 1-2 gram hair. The 50% paw withdrawal threshold is determined using the method of Dixon, W. J., Ann. Rev. Pharmacol. Toxicol. 20:441-462 (1980) hereby incorporated by reference. Tactile allodynia is measured prior to and 15, 30, and 60 minutes after drug administration. The post-drug threshold is compared to the pre-drug threshold and the percent reversal of tactile sensitivity is calculated based on a normal threshold of 15.1 grams.
# Table 1 below indicates the degree of pain reversal obtained in the Chung model with exemplary compounds used in accordance with the invention. […]
# [2] = tested on: synaptic function; conditions: cited from earlier work
# [3] = tested on: glycosphingolipid biosynthesis; conditions: via inhibition of glycosphingolipid biosynthesis; cited from earlier work
# [4] = biological target: T1, GlcCer synthase (GCS) (Homo sapiens, UniProt Q16739); conditions: cited from earlier work
# T1 sequence (Q16739 1-394): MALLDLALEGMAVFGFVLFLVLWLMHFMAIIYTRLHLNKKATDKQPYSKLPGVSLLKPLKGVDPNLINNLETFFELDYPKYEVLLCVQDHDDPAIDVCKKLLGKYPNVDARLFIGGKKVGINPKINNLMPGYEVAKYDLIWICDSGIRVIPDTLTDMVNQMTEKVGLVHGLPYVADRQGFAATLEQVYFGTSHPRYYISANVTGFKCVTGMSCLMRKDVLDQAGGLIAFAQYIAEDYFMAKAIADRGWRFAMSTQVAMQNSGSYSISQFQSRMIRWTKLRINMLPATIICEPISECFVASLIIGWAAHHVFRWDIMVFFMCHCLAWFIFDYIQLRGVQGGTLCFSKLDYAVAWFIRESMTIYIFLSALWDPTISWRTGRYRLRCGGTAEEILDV
# [5] = tested on: transient forebrain ischemia in rats; conditions: treatment after transient forebrain ischemia in rats; 8-arm maze task; cited from earlier work
# [6] = 1 h, 30 μg/kg IP, peak at 60 min post dose
smiles,measurement,setting,value
"C[C@H](N[C@H](CN1CCOCC1)[C@H](O)c1ccccc1)c1ccccc1 [Compound 5, D-threo-2-((S)-1-Phenylethylamino)-3-morpholino-1-phenylpropan-1-ol dihydrochloride]",inhibition in vivo at 0.3 mg/kg,"[1]; 1 h, peak at 60 min post dose",85%
"CCCCCCCCCC(=O)N[C@@H](CN1CCOCC1)[C@H](O)c1ccccc1 (racemic) [DL-erythro-PDMP, 1-Phenyl-2-decanoylamino-3-morpholino-1-propanol, reference compound]",inhibition in vivo at 1 mg/kg,"[1]; 0.5 h, peak at 30 min post dose",68%
"N[C@@H](C(=O)N1CCCC1)[C@@H](O)c1ccc(Cl)c(Cl)c1 (racemic) [Compound 15, DL-threo-2-Amino-3-(3,4-dichlorophenyl)-3-hydroxy-1-(pyrrolidin-1-yl)propan-1-one hydrochloride]",inhibition in vivo at 0.3 mg/kg,"[1]; 1 h, peak at 60 min post dose",42%
"CCCCCCCCCC(=O)N[C@@H](CN1CCCC1)[C@@H](O)c1ccc2c(c1)OCCO2 (racemic) [Compound 7, N-(DL-threo-1-(2,3-dihydrobenzol[b][1,4]dioxin-6-yl)-1-hydroxy-3-(pyrrolidin-1-yl)propan-2-yl)decanamide]",inhibition in vivo at 0.001 mg/kg,"[1]; 0.5 h, 1 μg/kg IP, peak at 30 min post dose",26%
"CCCCCCCCCC(=O)N[C@H](CN1CCOCC1)[C@H](O)c1ccccc1 [D-threo-PDMP, 1-Phenyl-2-decanoylamino-3-morpholino-1-propanol]",inhibition in vivo at 1 mg/kg,"[1]; 1 h, peak at 60 min post dose",77%
same,effect on synaptic function,[2],suppresses synaptic function
same,antitumor activity,[3],has antitumor activity
CCCCCCCCCCCCCCCC(=O)N[C@H](CN1CCCC1)[C@H](O)c1ccc(O)cc1 [D-threo-4′-hydroxy-P4],inhibition of GCS,[4],one of the most potent inhibitor of GCS
"COc1ccc([C@H](O)[C@@H](N)CN2CCCC2)cc1 (racemic) [Compound 9, DL-threo-2-Amino-1-(4-methoxyphenyl)-3-(pyrrolidin-1-yl)propan-1-ol]",inhibition in vivo at 0.03 mg/kg,[1]; [6],88%
"N[C@@H](CN1CCOCC1)[C@@H](O)c1ccccc1 [Compound 2, L-threo-2-Amino-3-morpholino-1-phenylpropan-1-ol dihydrochloride]",inhibition in vivo at 0.1 mg/kg,"[1]; 1 h, 100 μg/kg IP, peak at 60 min post dose",91%
"O=C(N[C@H](CN1CCCC1)[C@H](O)c1ccccc1)OCc1ccccc1 [PBPP, D-threo-1-phenyl-2-benzyloxycarbonylamino-3-pyrrolidino-1-propanol]",inhibition of GCS,[4],potent GCS inhibitor
"N[C@@H](CN1CCOCC1)[C@@H](O)c1ccccc1 (as salt: hydrochloride) [Compound 2, L-threo-2-Amino-3-morpholino-1-phenylpropan-1-ol dihydrochloride]",melting point,,166.4 to 170.9 °C
"CCCCCCCCCC(=O)N[C@@H](CN1CCOCC1)[C@@H](O)c1ccccc1 [L-threo-PDMP, (1S,2S)-1-phenyl-2-decanoylamino-3-morpholino-1-propanol, reference compound]",deficit of a well learned spatial memory,[5],ameliorated the deficit
same,inhibition in vivo at 0.03 mg/kg,"[1]; 0.5 h, 30 μg/kg PO, peak at 30 min post dose",100%
"Cc1ccc([C@H](O)[C@@H](N)C(=O)N2CCCC2)cc1 (racemic) [Compound 17, DL-threo-2-Amino-3-hydroxy-1-(pyrrolidin-1-yl)-3-p-tolylpropan-1-one hydrochloride]",inhibition in vivo at 0.3 mg/kg,"[1]; 1 h, peak at 60 min post dose",100%
"N[C@@H](CN1CCCC1)[C@@H](O)c1ccc2c(c1)OCCO2 (racemic) [Compound 6, DL-threo-2-Amino-1-(2,3-dihydrobenzo[b][1,4]dioxin-6-yl)-3-(pyrrolidin-1-yl)propan-1-ol]",inhibition in vivo at 0.03 mg/kg,[1]; [6],92%
"N[C@@H](C(=O)N1CCCC1)[C@@H](O)c1ccccc1 (racemic) [Compound 16, DL-threo-2-Amino-3-hydroxy-3-phenyl-1-(pyrrolidin-1-yl)propan-1-one hydrochloride]",inhibition in vivo at 0.3 mg/kg,"[1]; 1 h, peak at 60 min post dose",93%
